Series [1] can be described thus: Evaluation of metabolic stability. Type of series: in vitro ADME, human. As to conditions: 0.2 mg/mL HLM, 0.1 μM test substance, 15 minutes at 37° C., with vs without NADPH production. The method, then:
A test substance was dissolved in DMSO so that the concentration of the resultant solution became 20 mM, and the solution was diluted with DMSO so that the concentration of the resultant solution became 1 mM. The metabolic stability of the test substance was evaluated using a human liver microsome (HLM) in which human liver was pooled. An assay buffer solution contained 0.2 mg/mL of HLM, a 0.1 M of phosphate potassium buffer solution (pH 7.4), 0.1 mM of EDTA, 0.33 mM of NADP+, 8 mM of glucose-6-phosphate, 0.1 U/mL of glucose-6-phosphate dehydrogenase, 6 mM of MgCl2, 0.1 μM of a test substance (final concentration in DMSO: 0.01%) in 0.15 mL of the final incubation volume. Fifteen minutes after the initiation of the reaction at 37° C., 0.15 mL of a acetonitrile/methanol mixed solution (7:3, by volume) was added to the solution to terminate the reaction. After centrifugation, the resultant supernatant was analyzed by LC-MSMS, peak areas were compared under the presence or absence of the production of NADPH, and the residual ratio of the test substance was calculated.

The subject of a further series is Wnt signal. Kind of series: Detection of Wnt signal (TOPglow luciferase reporter, LiCl-stimulated). Type of series: cell-based. The conditions noted are these: Homo sapiens; HEK293 clone carrying pNeo-TOP reporter; LiCl stimulation; luciferase luminescence; read-out: Test Example 1 IC50 (concentration required for inhibiting the Wnt signal activity by 50%). The method, then:
pcDNA3.1(+) (invitrogen) was cleaved with restriction enzymes BglII and NotI, and an adapter BEHKS having a sequence shown below (containing restriction enzyme sites BglII, EcoRI, HindIII, KpnI, SacI and NotI) was inserted thereinto, thereby producing a plasmid pNeo-HKS.
Subsequently, a fragment having a length of about 2700 bp (containing a Wnt-responsive sequence and a luciferase gene), which was prepared by cleaving from a TOPglow plasmid contained in a TOPglow/FOPglow TCF Reporter Kit (upstate Catalog#17-366) with restriction enzymes HindIII and KpnI, was inserted between HindIII and KpnI in pNeo-HKS, thereby producing a plasmid pNeo-TOP. The plasmid pNeo-TOP was introduced into human fetus-derived renal cell strain HEK293, then a compound was selected using G418, and then a cell clone strain was established by a limiting dilution method. The cell clone strain was subjected to a Wnt signal detection test.
The cell clone strain was subcultured in a D-MEM glucose-rich culture medium (Wako Pure Chemical Industries, Ltd.) containing 10% FBS, and cells in a growth phase were used in the test. Cells were collected using trypsin-EDTA, the number of the cells was counted, and then the cells were suspended in a D-MEM glucose-rich culture medium containing 10% FBS so that the number of cells became 2×10^5 cells/mL. The cell suspension was added to a 96-well cell culture plate (Greiner Bio-One Co., Ltd., product number: 655083) in an amount of 0.1 mL/well and then cultured overnight in a 5% CO2 incubator (37° C.). After the culturing, a substance to be tested, which was dissolved in DMSO, was diluted with a D-MEM glucose-rich culture medium containing 10% of FBS and 80 mM of LiCl to produce a sample solution. The sample solution (0.1 mL) was added to each well and then cultured in a 5% CO2 incubator (37° C.) […]. Six hours after the addition of the sample solution, a supernatant was removed from each well, and then 50 μL of Bright-Glo™ Luciferase substrate (Promega, product number: E2620) was added thereto. The plate was put on a plate mixer for several seconds, and then the emission of light from each well was measured using a EnVision™ Multilabel plate reader (PerkinElmer Co., Ltd.). The Wnt signal activation rate (%) of each well was determined, and a concentration (IC50) which is required for inhibiting the Wnt signal activity of a substance of interest by 50% was calculated, wherein the luminosity of a well to which a sample solution was not added and LiCl was added was defined as a 100% Wnt signal activity and the luminosity of a well to which either of a sample solution or LiCl was not added was defined as a 0% Wnt signal activity.

Series [2] in a line: PAMPA test (parallel artificial membrane permeability assay). Type of series: in vitro ADME. The conditions noted are these: phosphate buffer pH 6.8, about 200 μM, about 5 hours, room temperature, read-out: Test Example 4 membrane permeation coefficient Pe. The procedure:
A test solution (see below) was stirred while shaking at room temperature for about 5 hours using a 96-well PAMPA plate (BD Biosciences) in which a lipid had been precoated onto a polyvinylidene fluoride (PVDF) film to evaluate the membrane permeation coefficient Pe (cm/s) of each compound dissolved in the test solution (concentration: about 200 μM) upon the transport of the compound from a donor side to an acceptor side through a lipid membrane. The Pe value was calculated in accordance with equations 1 and 2, and the concentration of the compound on the donor side and the acceptor side was measured by a HPLC-UV method. In 0.3 mL of the test solution on the donor side is contained about 1% (v/v) of DMSO, since 3 μL of a DMSO solution containing the compound at a concentration of 20 mM was added to the test solution.
Test solution: a phosphate buffer solution having a pH value of 6.8 (90 mM of phosphate, 48 mM of NaCl, 5.4 mM of KCl)
Conditions for stirring: a multishaker MS-300 (AS ONE Corporation), 350 rpm
[formula] CD(t): compound concentration in donor well at time t CA(t): compound concentration in acceptor well at time t VD: donor well volume (0.3 mL) VA: acceptor well volume (0.2 mL) A: filter area (0.3 cm^2)
On the technique in general: PAMPA measures passive passage across an artificial lipid membrane.

Series [3] is described as follows: Evaluation of solubility (DMSO stock into PBS, HPLC-UV). Type of series: physicochemical. As to conditions: aqueous buffer, kinetic from dmso stock; Dulbecco's phosphate-buffered saline pH 7, room temperature, about 15 minutes shaking; values greater than 200 μM regarded as 200 μM; read-out: Test Example 3 solubility. The procedure:
To 0.25 mL of a test solution a mentioned below was added 2.5 μL of a DMSO solution having a compound concentration of 20 mM. The resultant solution was shaken at room temperature for about 15 minutes (the conditions for the shaking are mentioned below). Subsequently, a supernatant was collected by a suction filtration under a reduced pressure. A DMSO solution having a compound concentration of 200 μM was used as a standard solution, and the concentration of a compound in a filtrate which was quantified by a HPLC-UV method was employed as a solubility (rounded off to the whole number). In this evaluation, since a value 200 μM became the upper limit operationally, all of quantification values greater than 200 μM were regarded as 200 μM.
Test solution: GIBCO (registered trade name) Dulbecco's phosphate-buffered saline (pH 7, Life Technologies Corporation)
Conditions for shaking: a microplate shaker N-704 (Nissinrika Corporation), speed 6

Converted amounts (≈) assume the structure as drawn.

The record followed here is patent publication US9174998B2, “(6S,9aS)-N-benzyl-6-[(4-hydroxyphenyl)methyl]-4,7-dioxo-8-({6-[3-(piperazin-1-yl)azetidin-1-yl]pyridin-2-yl}methyl)-2-(prop-2-en-1-yl)-octahydro-1H-pyrazino[2,1-c][1,2,4]triazine-1-carboxamide compound” (Eisai R&D Management Co., Ltd., priority 2013, dated 2015).

As to `C=CCN1CC(=O)N2[C@@H](Cc3ccc(O)cc3)C(=O)N(Cc3ccc(F)c(N4CC(N5CCN(CC)CC5)C4)n3)C[C@@H]2N1C(=O)NCc1ccccc1` [Example 7, (6S,9aS)-N-Benzyl-8-((6-(3-(4-ethylpiperazin-1-yl)azetidin-1-yl)-5-fluoropyridin-2-yl)methyl)-6-((4-hydroxyphenyl)methyl)-4,7-dioxo-2-(prop-2-en-1-yl)-octahydro-1H-pyrazino[2,1-c][1,2,4]triazine-1-carboxamide], in series [1], the “Test Example 2 residual ratio of the test substance” value (“Test Example 2 residual ratio” below) is recorded as 29%. The IC50 in the series on Wnt signal is 95 nM. Moreover, the Papp in series [2] turned out to be 2.77 ×10⁻⁶ cm/s. Moreover, the solubility – broadly, the dissolved amount per volume that the medium holds – in series [3] is 189 µM (≈ 137 µg/mL).
Consider `C=CCN1CC(=O)N2[C@@H](Cc3ccc(O)cc3)C(=O)N(Cc3ccc(F)c(N4CC(N5CCN(C)CC5)C4)n3)C[C@@H]2N1C(=O)NCc1ccccc1` [Example 8, (6S,9aS)-N-Benzyl-8-((5-fluoro-6-(3-(4-methylpiperazin-1-yl)azetidin-1-yl)pyridin-2-yl)methyl)-6-((4-hydroxyphenyl)methyl)-4,7-dioxo-2-(prop-2-en-1-yl)-octahydro-1H-pyrazino[2,1-c][1,2,4]triazine-1-carboxamide], for which, in series [1], the “Test Example 2 residual ratio” value was determined as 40%. Moreover, the IC50 in the series on Wnt signal turned out to be 200 nM. Besides, in series [2], the Papp was found to be 2.3 ×10⁻⁶ cm/s. The solubility in series [3] worked out at 195 µM (≈ 139 µg/mL).
The corresponding values for `C=CCN1CC(=O)N2[C@@H](Cc3ccc(O)cc3)C(=O)N(Cc3cccc(N4CC(N5CCN(C(C)C)CC5)C4)n3)C[C@@H]2N1C(=O)NCc1ccccc1` [Example 9, (6S,9aS)-N-Benzyl-6-((4-hydroxyphenyl)methyl)-4,7-dioxo-2-(prop-2-en-1-yl)-8-((6-(3-(4-(propan-2-yl)piperazin-1-yl)azetidin-1-yl)pyridin-2-yl)methyl)-octahydro-1H-pyrazino[2,1-c][1,2,4]triazine-1-carboxamide] are 34%, 150 nM, 1.38 ×10⁻⁶ cm/s and 194 µM (≈ 140 µg/mL).
On to `C=CCN1CC(=O)N2[C@@H](Cc3ccc(O)cc3F)C(=O)N(Cc3ccc(F)c(N4CC(N5CCN(C)CC5)C4)n3)C[C@@H]2N1C(=O)NCc1ccccc1` [Example 10, (6S,9aS)-N-Benzyl-6-((2-fluoro-4-hydroxyphenyl)methyl)-8-((5-fluoro-6-(3-(4-methylpiperazin-1-yl)azetidin-1-yl)pyridin-2-yl)methyl)-4,7-dioxo-2-(prop-2-en-1-yl)-octahydro-1H-pyrazino[2,1-c][1,2,4]triazine-1-carboxamide], for which the “Test Example 2 residual ratio” value in series [1] was 28%. Moreover, in the series on Wnt signal, the IC50 was determined as 44 nM. The Papp in series [2] was found to be 3.75 ×10⁻⁶ cm/s. Moreover, the solubility in series [3] was determined as 184 µM (≈ 134 µg/mL).
Taken in the same sequence, the figures for `C=CCN1CC(=O)N2[C@@H](Cc3ccc(O)cc3F)C(=O)N(Cc3cccc(N4CC(N5CCN(C(C)C)CC5)C4)n3)C[C@@H]2N1C(=O)NCc1ccccc1` [Example 11, (6S,9aS)-N-Benzyl-6-((2-fluoro-4-hydroxyphenyl)methyl)-4,7-dioxo-2-(prop-2-en-1-yl)-8-((6-(3-(4-(propan-2-yl)piperazin-1-yl)azetidin-1-yl)pyridin-2-yl)methyl)-octahydro-1H-pyrazino[2,1-c][1,2,4]triazine-1-carboxamide] were 26%, 39 nM, 2.55 ×10⁻⁶ cm/s and 192 µM (≈ 142 µg/mL).
Taken in the same sequence, the figures for `C=CCN1CC(=O)N2[C@@H](Cc3c(F)cc(O)cc3F)C(=O)N(Cc3cccc(N4CC(N5CCN(C(C)C)CC5)C4)n3)C[C@@H]2N1C(=O)NCc1ccccc1` [Example 12, (6S,9aS)-N-Benzyl-6-((2,6-difluoro-4-hydroxyphenyl)methyl)-4,7-dioxo-2-(prop-2-en-1-yl)-8-((6-(3-(4-(propan-2-yl)piperazin-1-yl)azetidin-1-yl)pyridin-2-yl)methyl)-octahydro-1H-pyrazino[2,1-c][1,2,4]triazine-1-carboxamide] were 38%, 96 nM, 0.87 ×10⁻⁶ cm/s and 188 µM (≈ 142 µg/mL).
